Our source for the Ki values is patent publication US20060194837A1, “Tetrahydroisoquinoline compounds” (priority 2004, published 2006).

One experiment concerns the target T1, human SERT (Homo sapiens, UniProt P31645).
T1 construct: expressed in transfected cells; host or cells: HEK293 membranes
Kind of experiment: Human SERT binding (3H-citalopram displacement). As to conditions: HEK293 membranes expressing human SERT, rt 1 h. The protocol: Homogenized HEK293 (Human Embryonic Kidney) membranes expressing the human SERT were incubated with ^3H-citalopram (SERT) at rt for 1 h in 50 mM Tris, 120 mM NaCl, 5 mM KCl (pH 7.4). […] The membranes were washed and the radioactivity was counted as above.

For another experiment, the target named is T2, human H3 receptor (Homo sapiens, UniProt Q9Y5N1).
T2 construct: expressed in transfected cells
The experiment can be described thus: H3 receptor binding (N-[3H]-α-methylhistamine displacement). To be noted: membranes of SK-N-MC cells expressing cloned human H3 receptor, 0.8 nM N-[3H]-α-methylhistamine, 60 min at 25° C.

For another experiment, the target named is T3, Rat SERT (Rattus norvegicus, UniProt P31652).
T3 construct: A rat brain without cerebellum (Zivic Laboratories, Inc.—Pittsburgh, Pa.) was homogenized; tissue Zivic Laboratories, Inc; host or cells: rat brain without cerebellum, membranes
The experiment can be described thus: Rat brain SERT binding ([3H]-citalopram displacement). To be noted: rat brain membranes without cerebellum, 0.6 nM [3H]-citalopram, 60 min at 25° C.; read-out: Rat SERT Ki. How it is done: The supernatant was removed and re-centrifuged at 15,000 rpm for 30 min. […] Membranes were incubated with 0.6 nM [^3H]-Citalopram plus/minus test compounds for 60 min at 25° C. and harvested by rapid filtration over GF/C glass fiber filters (pretreated with 0.3% polyethylenimine) followed by four washes with ice-cold buffer.

T1 sequence (P31645 whole entry): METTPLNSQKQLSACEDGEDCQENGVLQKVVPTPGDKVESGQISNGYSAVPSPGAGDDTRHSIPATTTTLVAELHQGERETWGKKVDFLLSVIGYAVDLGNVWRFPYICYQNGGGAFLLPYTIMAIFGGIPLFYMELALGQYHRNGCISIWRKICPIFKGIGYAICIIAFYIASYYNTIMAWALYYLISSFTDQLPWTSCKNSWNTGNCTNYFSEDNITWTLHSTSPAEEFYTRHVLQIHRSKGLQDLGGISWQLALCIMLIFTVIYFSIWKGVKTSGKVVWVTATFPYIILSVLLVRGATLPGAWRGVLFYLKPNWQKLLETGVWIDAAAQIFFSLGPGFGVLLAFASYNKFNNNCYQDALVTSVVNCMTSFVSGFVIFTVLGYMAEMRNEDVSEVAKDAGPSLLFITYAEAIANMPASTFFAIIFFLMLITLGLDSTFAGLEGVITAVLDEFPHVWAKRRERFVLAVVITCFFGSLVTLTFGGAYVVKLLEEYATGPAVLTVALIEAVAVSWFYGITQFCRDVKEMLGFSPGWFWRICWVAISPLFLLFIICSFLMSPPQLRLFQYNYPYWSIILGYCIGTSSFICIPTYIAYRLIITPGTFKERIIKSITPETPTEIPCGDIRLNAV
T3 sequence (P31652 whole entry): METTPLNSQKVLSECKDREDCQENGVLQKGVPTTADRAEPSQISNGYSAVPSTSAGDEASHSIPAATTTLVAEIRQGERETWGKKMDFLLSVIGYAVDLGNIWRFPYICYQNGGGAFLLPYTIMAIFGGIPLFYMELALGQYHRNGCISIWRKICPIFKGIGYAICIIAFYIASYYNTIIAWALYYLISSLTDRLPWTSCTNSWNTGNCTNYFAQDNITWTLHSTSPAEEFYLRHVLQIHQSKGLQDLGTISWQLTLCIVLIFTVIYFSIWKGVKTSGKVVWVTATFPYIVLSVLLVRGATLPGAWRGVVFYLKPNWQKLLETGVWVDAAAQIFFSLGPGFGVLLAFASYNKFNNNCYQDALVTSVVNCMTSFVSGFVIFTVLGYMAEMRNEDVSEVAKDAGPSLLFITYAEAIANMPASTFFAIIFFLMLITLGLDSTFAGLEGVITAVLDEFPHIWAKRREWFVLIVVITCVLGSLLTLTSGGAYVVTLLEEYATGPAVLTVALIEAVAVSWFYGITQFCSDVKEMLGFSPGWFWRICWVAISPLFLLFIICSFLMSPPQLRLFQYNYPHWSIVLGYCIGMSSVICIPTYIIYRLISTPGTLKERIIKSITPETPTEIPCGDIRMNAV
T2 sequence (Q9Y5N1 whole entry): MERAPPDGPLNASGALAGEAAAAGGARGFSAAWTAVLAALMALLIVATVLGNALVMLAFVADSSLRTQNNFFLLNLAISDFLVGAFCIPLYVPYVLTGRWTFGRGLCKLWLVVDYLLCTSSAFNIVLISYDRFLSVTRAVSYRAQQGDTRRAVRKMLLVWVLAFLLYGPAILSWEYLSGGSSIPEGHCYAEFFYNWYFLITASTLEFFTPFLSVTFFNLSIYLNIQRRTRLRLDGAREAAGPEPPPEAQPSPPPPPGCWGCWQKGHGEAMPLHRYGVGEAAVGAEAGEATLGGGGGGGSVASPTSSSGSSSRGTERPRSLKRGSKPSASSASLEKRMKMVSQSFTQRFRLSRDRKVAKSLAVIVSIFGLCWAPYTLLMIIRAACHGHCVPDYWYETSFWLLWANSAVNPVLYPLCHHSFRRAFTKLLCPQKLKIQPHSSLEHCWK

The term Ki denotes the equilibrium dissociation constant of an inhibitor or competing ligand from its target. In the case of `COc1ccc(C2CN(C)Cc3cc(OCCCN4CCCC(CO)C4)ccc32)cc1` (stereo not drawn) [Example 23, (1-{3-[4-(4-Methoxy-phenyl)-2-methyl-1,2,3,4-tetrahydro-isoquinolin-7-yloxy]-propyl}-piperidin-3-yl)-methanol], the Ki on human SERT is 4 nM; on human H3 receptor it was 2 nM; on Rat SERT it was 2 nM.
As to `CCOC(=O)N1CCN(CCCOc2ccc3c(c2)CN(C)CC3c2ccc(OC)cc2)CC1` (stereo not drawn) [Example 12, 4-{3-[4-(4-Methoxy-phenyl)-2-methyl-1,2,3,4-tetrahydro-isoquinolin-7-yloxy]-propyl}-piperazine-1-carboxylic acid ethyl ester], the Ki came to 16 nM at human SERT, 59 nM on human H3 receptor and 6 nM at Rat SERT.
The matching figures for `COc1ccc(C2CN(C)Cc3cc(OCCCN4CCC[C@@H]4CO)ccc32)cc1` (stereo partly drawn) [Example 30, (1-{3-[4-(4-Methoxy-phenyl)-2-methyl-1,2,3,4-tetrahydro-isoquinolin-7-yloxy]-propyl}-pyrrolidin-(2R)-yl)-methanol]: 2 nM, 3 nM and 2 nM.
On to `COc1ccc(C2CN(C)Cc3cc(OCCCN4CCN(C(=O)c5ccncc5)CC4)ccc32)cc1` (stereo not drawn) [Example 4, (4-{3-[4-(4-Methoxy-phenyl)-2-methyl-1,2,3,4-tetrahydro-isoquinolin-7-yloxy]-propyl}-piperazin-1-yl)-pyridin-4-yl-methanone], for which the Ki on human SERT was 21 nM; on human H3 receptor it was 4000 nM; at Rat SERT, 33 nM.
Consider `COc1ccc(C2CN(C)Cc3cc(OCC4CCN(C)CC4)ccc32)cc1` (stereo not drawn) [Example 84, 4-(4-Methoxy-phenyl)-2-methyl-7-(1-methyl-piperidin-4-ylmethoxy)-1,2,3,4-tetrahydro-isoquinoline], for which the Ki at human SERT came to 7 nM; at human H3 receptor, 3 nM; at Rat SERT it was 7 nM.
In the case of `COc1ccc(C2CN(C)Cc3cc(OCC4CN(C(C)C)CCO4)ccc32)cc1` (stereo not drawn) [Example 254, 7-(4-Isopropyl-morpholin-2-ylmethoxy)-4-(4-methoxy-phenyl)-2-methyl-1,2,3,4-tetrahydro-isoquinoline], the Ki amounted to 7 nM on human SERT, 9 nM at human H3 receptor and 9 nM at Rat SERT.
As to `CN1Cc2cc(OCCCN3CCC(F)CC3)ccc2C(c2ccc(C#N)cc2)C1` (stereo not drawn) [Example 136, 4-{7-[3-(4-Fluoro-piperidin-1-yl)-propoxy]-2-methyl-1,2,3,4-tetrahydro-isoquinolin-4-yl}-benzonitrile], the Ki at human SERT worked out at 20 nM; at human H3 receptor it was 4 nM; on Rat SERT, 9 nM.
In the case of `CN1Cc2cc(OCCCN3CCCCC3)ccc2C(c2ccc(OC(F)(F)F)cc2)C1` (stereo not drawn) [Example 222, 2-Methyl-7-(3-piperidin-1-yl-propoxy)-4-(4-trifluoromethoxy-phenyl)-1,2,3,4-tetrahydro-isoquinoline], the figures for the Ki on human SERT, at human H3 receptor and at Rat SERT were 18 nM, 30 nM and 30 nM, respectively.
For the molecule `COc1cccc(C2CN(C)Cc3cc(OCC4CCN(C)CC4)ccc32)c1` (stereo not drawn) [Example 92, 4-(3-Methoxy-phenyl)-2-methyl-7-(1-methyl-piperidin-4-ylmethoxy)-1,2,3,4-tetrahydro-isoquinoline], the results for the Ki on human SERT, on human H3 receptor and on Rat SERT were 9 nM, 2 nM and 12 nM, respectively.
In the same order, the values of `COc1ccc(C2CN(C)Cc3cc(C#CCCN4CCSCC4)ccc32)cc1` (stereo not drawn) [Example 277, 4-(4-Methoxy-phenyl)-2-methyl-7-(4-thiomorpholin-4-yl-but-1-ynyl)-1,2,3,4-tetrahydro-isoquinoline] are 13 nM, 45 nM and 37 nM.
As for `COc1ccc(C2CN(C)Cc3cc(OCC4CCN(CC(C)C)CC4)ccc32)cc1` (stereo not drawn) [Example 110, 7-(1-Isobutyl-piperidin-4-ylmethoxy)-4-(4-methoxy-phenyl)-2-methyl-1,2,3,4-tetrahydro-isoquinoline], the inhibition constant (Ki) at human SERT amounted to 5 nM; at human H3 receptor, 5 nM; on Rat SERT, 4 nM.
For the molecule `CSc1ccc(C2CN(C)Cc3cc(OC4CCN(C5CC5)CC4)ccc32)cc1` (stereo not drawn) [Example 247, 7-(1-Cyclopropyl-piperidin-4-yloxy)-2-methyl-4-(4-methylsulfanyl-phenyl)-1,2,3,4-tetrahydro-isoquinoline], the Ki is 7 nM at human SERT, 2 nM at human H3 receptor and 5 nM at Rat SERT.
In the same order, the values of `COc1ccc(C2CN(C)Cc3cc(OCCCN4CC[C@@H](O)C4)ccc32)cc1` (stereo partly drawn) [Example 31, 1-{3-[4-(4-Methoxy-phenyl)-2-methyl-1,2,3,4-tetrahydro-isoquinolin-7-yloxy]-propyl}-(R)-pyrrolidin-3-ol] are 3 nM, 2 nM and 2 nM.
The matching figures for `COc1ccc(C2CN(C)Cc3cc(OCCCN4CCCC(C(F)(F)F)C4)ccc32)cc1` (stereo not drawn) [Example 25, 4-(4-Methoxy-phenyl)-2-methyl-7-[3-(3-trifluoromethyl-piperidin-1-yl)-propoxy]-1,2,3,4-tetrahydro-isoquinoline]: 6 nM, 7 nM and 10 nM.
The matching figures for `COc1ccc(C2CN(C)Cc3cc(CCCCN4CCN(C(C)C)CC4)ccc32)cc1` (stereo not drawn) [Example 283, 7-[4-(4-Isopropyl-piperazin-1-yl)-butyl]-4-(4-methoxy-phenyl)-2-methyl-1,2,3,4-tetrahydro-isoquinoline]: 7 nM, 13 nM and 4 nM.
With `CCN1Cc2cc(OCCCN3CCCCC3)ccc2C(c2ccc(OC)cc2)C1` (stereo not drawn) [Example 66, 2-Ethyl-4-(4-methoxy-phenyl)-7-(3-piperidin-1-yl-propoxy)-1,2,3,4-tetrahydro-isoquinoline], the inhibitory constant (Ki) at human SERT turned out to be 4 nM; at human H3 receptor, 1 nM; on Rat SERT, 5 nM.
The matching figures for `COc1ccc(C2CN(C(C)(C)C)Cc3cc(OCCCN4CCCCC4)ccc32)cc1` (stereo not drawn) [Example 64, 2-tert-Butyl-4-(4-methoxy-phenyl)-7-(3-piperidin-1-yl-propoxy)-1,2,3,4-tetrahydro-isoquinoline]: 252 nM, 1 nM and 222 nM.
In the same order, the values of `COc1ccc(C2CN(C)Cc3cc(OCC4CCN(CCF)CC4)ccc32)cc1` (stereo not drawn) [Example 116, 7-[1-(2-Fluoro-ethyl)-piperidin-4-ylmethoxy]-4-(4-methoxy-phenyl)-2-methyl-1,2,3,4-tetrahydro-isoquinoline] are 7 nM, 8 nM and 6 nM.
Turning to `COc1ccc(C2CN(C)Cc3cc(OCCCN4CCC(C#N)CC4)ccc32)cc1` (single isomer, unassigned) [Example 37A, 1-{3-[4-(4-Methoxy-phenyl)-2-methyl-1,2,3,4-tetrahydro-isoquinolin-7-yloxy]-propyl}-piperidine-4-carbonitrile], the Ki turned out to be 13 nM at human SERT, 89 nM at human H3 receptor and 9 nM at Rat SERT.
The matching figures for `COc1ccc(C2CN(C)Cc3cc(CCCCN4CCSCC4)ccc32)cc1` (stereo not drawn) [Example 282, 4-(4-Methoxy-phenyl)-2-methyl-7-(4-thiomorpholin-4-yl-butyl)-1,2,3,4-tetrahydro-isoquinoline]: 17 nM, 25 nM and 6 nM.
`CSc1ccc(C2CN(C)Cc3cc(OCC4CCN(C(C)C)CC4)ccc32)cc1` (stereo not drawn) [Example 103, 7-(1-Isopropyl-piperidin-4-ylmethoxy)-2-methyl-4-(4-methylsulfanyl-phenyl)-1,2,3,4-tetrahydro-isoquinoline]: the Ki turned out to be 3 nM on human SERT, 7 nM at human H3 receptor and 8 nM on Rat SERT.
The matching figures for `CN1Cc2cc(OCCCN3CCC(F)CC3)ccc2C(c2ccccc2)C1` (stereo not drawn) [Example 124, 7-[3-(4-Fluoro-piperidin-1-yl)-propoxy]-2-methyl-4-phenyl-1,2,3,4-tetrahydro-isoquinoline]: 56 nM, 3 nM and 13 nM.
In the same order, the values of `COc1ccc(C2CN(C)Cc3cc(OCCCN4CCN(C(=O)C5CC5)CC4)ccc32)cc1` (stereo not drawn) [Example 7, Cyclopropyl-(4-{3-[4-(4-methoxy-phenyl)-2-methyl-1,2,3,4-tetrahydro-isoquinolin-7-yloxy]-propyl}-piperazin-1-yl)-methanone] are 14 nM, 315 nM and 14 nM.
In the same order, the values of `COc1ccc(C2CN(C)Cc3cc(OCCCN4CCC(CCO)CC4)ccc32)cc1` (stereo not drawn) [Example 26, 2-(1-{3-[4-(4-Methoxy-phenyl)-2-methyl-1,2,3,4-tetrahydro-isoquinolin-7-yloxy]-propyl}-piperidin-4-yl)-ethanol] are 5 nM, 12 nM and 2 nM.
On to `COc1ccc(C2CN(C)Cc3cc(OCCCN4CCN(C(=O)C5CCC5)CC4)ccc32)cc1` (stereo not drawn) [Example 6, Cyclobutyl-(4-{3-[4-(4-methoxy-phenyl)-2-methyl-1,2,3,4-tetrahydro-isoquinolin-7-yloxy]-propyl}-piperazin-1-yl)-methanone], for which the Ki was 15 nM at human SERT, 534 nM at human H3 receptor and 15 nM at Rat SERT.
